Test results as given in patent publication US6642246B1 (priority 1999, dated 2003).

Molecular target: α7 nAChR subtype (Rattus norvegicus, UniProt Q05941)
Format: binding

Sequence of α7 nAChR subtype (Q05941 23-502 limits assumed): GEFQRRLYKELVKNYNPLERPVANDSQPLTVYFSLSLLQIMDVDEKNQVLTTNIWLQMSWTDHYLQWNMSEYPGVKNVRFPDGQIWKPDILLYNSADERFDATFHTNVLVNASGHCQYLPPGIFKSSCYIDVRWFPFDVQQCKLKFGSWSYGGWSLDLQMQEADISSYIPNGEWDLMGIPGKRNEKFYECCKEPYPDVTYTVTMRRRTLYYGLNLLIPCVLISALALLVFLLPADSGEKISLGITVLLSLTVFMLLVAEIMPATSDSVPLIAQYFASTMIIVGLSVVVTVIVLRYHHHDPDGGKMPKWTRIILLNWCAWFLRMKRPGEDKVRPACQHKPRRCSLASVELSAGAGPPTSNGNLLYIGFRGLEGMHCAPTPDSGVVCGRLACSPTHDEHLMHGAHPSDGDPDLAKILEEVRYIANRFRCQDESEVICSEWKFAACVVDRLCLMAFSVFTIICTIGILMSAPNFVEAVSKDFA

For ^125I-α-Bungarotoxin [^125I-α-BTX], which Kd is on record?
The Kd was 1.67 nM.
